The target in data set [1] is T1, Recombinant HIV protease (Human immunodeficiency virus type 1 group M subtype B, UniProt P04585).
T1 construct: Recombinant HIV protease
Description: HIV protease inhibitory activity (cleavage of synthetic hepta-peptide, HPLC). Particulars: for inhibition at 0.05 µM / HIV protease inhibitory activity (%): 37° C., 60 min; for inhibition at 5 µM: read-out: HIV protease inhibitory activity (%). It counts as biochemical. How it is done: Recombinant HIV protease (Biochemistry, 250 (9), 264 (1990)) and synthetic hepta-peptide (H-Ser-Gln-Asn-Tyr-Pro-Ile-Val-OH/trifluoroacetic acid salt) were used for assay of protease activity. Peptide fragment H-Pro-Ile-Val-OH formed by cleavage between -Tyr . . . Pro of said substrate after a reaction in the presence of various concentration of tested compound at 37° C. for 60 min. was determined by reversed phase HPLC and the inhibitory rate was calculated (referred to Japanese laid-open unexamined patent, No. 170722/1993).
The concentration of tested compound represents the final concentration thereof of the reaction mixture.

In data set [2] the test system is HTLV-IIIB virus. Description: Anti-HIV activity: protection of HTLV-IIIB infected MT-4 cells, MTT method. In kind it is cell-based. To be noted: MT-4 cells infected with HTLV-IIIB, 5 day culture; for EC50: Human immunodeficiency virus 1, MT4, 120 h. How it is done:
The anti-HIV activity of the dipeptide compound of the present invention was evaluated as described below. That is, the inhibitory action of the compound on formation of HIV virus particles which infects T lymphocyte was evaluated by potency to prevent death of T lymphocyte accompanied by said virus infection.
(§1) According to a test method which was already reported in publications (H.Nakashima et al., Antimicrob. Agents Chemother.36, 1249-1255 (1992), etc.,), anti-HIV activity was evaluated, by using MT-4 cell line and HTLV-IIIB virus, MT-4 cells (2.5×10^4 well, MOI:001) infected with said HTLV-IIIB virus just before the addition were into 96-well microtiter plate wherein each well contained various concentration of tested compound. At the same time, in order to investigate cytotoxicity of tested compounds to MT-4 cell line, non-infected MT-4 cell line was cultured in the presence of various kinds of tested compound. After 5 day culture at 37° C. in a CO2 incubator, the number of vial cells was counted by MTT method.
Virus whose infectious value was 3.8×10^4 TCID 50/ml was used.
(Tetrazolium dyes change colour on reduction, which living cells bring about.)

Data set [3] deals with MT-4 cell line. Kind of data set: Cytotoxicity to non-infected MT-4 cell line, MTT method. In kind it is cell-based. Particulars: non-infected MT-4 cells, 5 day culture. Here is the method: as §1, with “method. […]” for “method.”
Data set [4] can be described thus: Pharmacokinetics in rats, intravenous or intraduodenal administration, plasma concentration. It counts as in vivo. Here is the method: Metabolic characteristics of the dipeptide compounds of the present invention was evaluated using rats. Tested compounds dissolved in vehicle was administered intraduodenally or intravenously. After administration, blood was taken and the concentration of residual tested compound in plasma was analyzed. The dosage of the tested compound was described in table 3.

Here are results for 9 compounds from patent US5962640A, “Methods for preparing novel dipeptide compounds or pharmacuetically acceptable salts thereof” (Japan Energy Corporation, priority 1995, dated 1999).

Converted amounts (≈) assume the structure as drawn.

What is called EC50 is the concentration needed to bring the measured effect to its halfway point. In general, MRT refers to a mean duration of stay, worked out from the concentration-time curve.

With `CCc1c(O)cccc1C(=O)N[C@@H](Cc1ccccc1)[C@H](O)C(=O)N1CSC[C@H]1C(=O)NC(C)(C)C` [Compound of example 31, (R)-N-tert-butyl-3-[(2S,3S)-2-hydroxy-3-(2-ethyl-3-hydroxybenzoyl)amino-4-phenylbutanoyl]-1,3-thiazolidine-4-carboxamide], in data set [1] (concentration 50 nM (final)), the inhibition at 0.05 µM was 45.6%. Further, the inhibition at 5 µM in data set [1] worked out at 97.5%. This compound also displayed an EC50 in data set [2] of 1.46 µg/mL (≈ 2.84 µM). In addition, in data set [3], the “Cytotoxicity CC50” value worked out at 168 µg/mL. This compound had an AUC in data set [4] (i.d., 10.0 mg/kg) of 99 µg/mL/min. Moreover, in data set [4] (i.v., 10.0 mg/kg), the AUC was found to be 276 µg/mL/min and the MRT worked out at 1.6 h.
As for `Cc1ccccc1CNC(=O)[C@@H]1CSCN1C(=O)[C@@H](O)[C@H](Cc1ccccc1)NC(=O)c1cccc(O)c1C` [Compound of example 34, (R)-N-(2-methylbenzyl)-3-[(2S,3S)-3-(3-hydroxy-2-methylbenzoyl)amino-2-hydroxy-4-phenylbutanoyl]-1,3-thiazolidine-4-carboxamide], the inhibition at 0.05 µM in data set [1] (concentration 50 nM (final)) stood at 69.8%. Also, the inhibition at 5 µM in data set [1] came out at 96.7%. This compound also had a concentration giving a half-maximal response (EC50) in data set [2] of 5.35 µg/mL (≈ 9.77 µM). In addition, the “Cytotoxicity CC50” value in data set [3] is 24.5 µg/mL. The AUC is 40 µg/mL/min in data set [4] (i.d., 10.0 mg/kg) and 124 µg/mL/min in data set [4] (i.v., 10.0 mg/kg).
Consider `CCc1c(O)cccc1C(=O)N[C@@H](Cc1ccccc1)[C@H](O)C(=O)N1CSC(C)(C)[C@H]1C(=O)NC(C)(C)C` [Compound of example 36, (R)-N-tert-butyl-3-[(2S,3S)-3-(2-ethyl-3-hydroxybenzoyl)amino-2-hydroxy-4-phenylbutanoyl]-5,5-dimethyl-1,3-thiazolidine-4-carboxamide], for which the inhibition at 0.05 µM in data set [1] (concentration 50 nM (final)) turned out to be 83.5%. Besides, the inhibition at 5 µM in data set [1] is over 99%. Further, the midpoint of the response in data set [2], the EC50, lay at 0.54 µg/mL (≈ 0.997 µM). Also, the “Cytotoxicity CC50” value in data set [3] was 103 µg/mL. Also, the AUC in data set [4] (i.d., 10.0 mg/kg) came out at 64 µg/mL/min; in data set [4] (i.v., 10.0 mg/kg), 174 µg/mL/min.
For `Cc1c(O)cccc1C(=O)N[C@@H](Cc1ccccc1)[C@H](O)C(=O)N1CSC(C)(C)[C@H]1C(=O)NC(C)(C)C` [Compound of example 22, (R)-N-tert-butyl-3-[(2S,3S)-2-hydroxy-3-[3-hydroxy-2-methylbenzoy 1]amino-4-phenylbutanoyl]-5,5-dimethyl-1,3-thiazolidine-4-carboxamide], the “HIV protease inhibitory activity (%)” value in data set [1] (concentration 50 nM (final)) is 87.6%; in data set [1] (concentration 5 μM (final)), 99.0%. Further, the “Anti-HIV activity EC50” value in data set [2] was found to be 0.15 µg/mL. In addition, the “Cytotoxicity CC50” value in data set [3] was determined as 156 µg/mL. The AUC in data set [4] (i.d., 20.0 mg/kg) worked out at 106 µg/mL/min; in data set [4] (i.v., 10.0 mg/kg), 111 µg/mL/min.
On to `Cc1c(O)cccc1C(=O)N[C@@H](Cc1ccccc1)[C@H](O)C(=O)N1CS(=O)(=O)C[C@H]1C(=O)NC(C)(C)C` [Compound of example 28, (R)-N-tert-butyl-3-[(2S,3S)-2-hydroxy-3-(2-methyl-3-hydroxybenzoyl)amino-4-phenylbutanoyl]-1,3-thiazolidine-1,1-dioxide-4-carboxamide], for which the “HIV protease inhibitory activity (%)” value in data set [1] (concentration 50 nM (final)) turned out to be 23.8%; in data set [1] (concentration 5 μM (final)) it was 96.1%. Moreover, in data set [2], the “Anti-HIV activity EC50” value came to 1.80 µg/mL. Moreover, the “Cytotoxicity CC50” value in data set [3] stood at 146 µg/mL.
Consider `Cc1c(O)cccc1C(=O)N[C@@H](Cc1ccccc1)[C@H](O)C(=O)N1CSC[C@H]1C(=O)NC(C)(C)C` [Compound of example 21, (R)-N-tert-butyl-3-[(2S,3S)-2-hydroxy-3-[3-hydroxy-2-methylbenzoy 1]amino-4-phenylbutanoyl]-1,3-thiazolidine-4-carboxamide], for which the “Anti-HIV activity EC50” value in data set [2] was determined as 0.70 µg/mL. Also, the “Cytotoxicity CC50” value in data set [3] came out at 184 µg/mL. For the same compound, the AUC in data set [4] (i.d., 20.0 mg/kg) was 101 µg/mL/min; in data set [4] (i.v., 10.0 mg/kg), 111 µg/mL/min.
Regarding `Cc1c(O)cccc1C(=O)N[C@@H](Cc1ccccc1)[C@H](O)C(=O)N1CCC[C@H]1C(=O)NC(C)(C)C` [Compound of example 24, N-tert-butyl-1-[(2S,3S)-2-hydroxy-3-N-[3-hydroxy-2-methylbenzoyl]amino-4-phenylbutanoyl]-L-prolinamide], the “HIV protease inhibitory activity (%)” value in data set [1] (concentration 50 nM (final)) is listed as 17.6%; in data set [1] (concentration 5 μM (final)), 94.2%. The “Anti-HIV activity EC50” value in data set [2] amounted to 1.97 µg/mL. Besides, the “Cytotoxicity CC50” value in data set [3] worked out at 231 µg/mL.
For the compound `CCc1c(O)cccc1C(=O)N[C@@H](Cc1ccccc1)[C@H](O)C(=O)N1CSC[C@H]1C(=O)NCc1ccccc1C` [Compound of example 35, (R)-N-(2-methylbenzyl)-3-[(2S,3S)-3-(2-ethyl-3-hydroxybenzoyl)amino-2-hydroxy-4-phenylbutanoyl]-1,3-thiazolidine-4-carboxamide], the inhibition at 0.05 µM in data set [1] (concentration 50 nM (final)) turned out to be 48.8%. Also, the inhibition at 5 µM in data set [1] was 98.1%. This compound yielded an EC50 in data set [2] of 4.15 µg/mL (≈ 7.39 µM). Also, in data set [3], the “Cytotoxicity CC50” value came to 90.9 µg/mL.
As for `CSC[C@H](NC(=O)COc1cccc2cnccc12)C(=O)N[C@@H](Cc1ccccc1)[C@H](O)C(=O)N1CSC[C@H]1C(=O)NC(C)(C)C` [KNI-272, (R)-3-[(2S,3S)-3-(N-(isoquinoline-5-yloxy)acetyl-methylthio-L-alanyl)amino-2-hydroxy-4-phenylbutanoyl]1,3-thiazolidine-4-N'-t-butylcarboxamide, reference compound], in data set [2], the “Anti-HIV activity EC50” value came to 0.21 µg/mL. In data set [3], the “Cytotoxicity CC50” value worked out at 115 µg/mL. The AUC in data set [4] (i.d., 10.0 mg/kg) came out at 98 µg/mL/min; in data set [4] (i.v., 10.0 mg/kg), 224 µg/mL/min.
